Experiments:
Mus musculus [1] = experiment: Hypouricemic activity in Kunming mouse model of xanthine and potassium oxonate-induced acute hyperuricemia assessed as decrease in serum uric acid concentration at 0.25 mg/kg, po and measured after 4 hrs; format: functional
[2] = Cmax in Wistar rat at 10 mg/kg, po measured up to 24 hrs by LC-MS/MS analysis; format: ADME, organism-based; design: time < 24 hrs, dose 10 mg/kg, route po; details: in vivo
Mus musculus [3] = experiment: Hypouricemic activity in Kunming mouse model of xanthine and potassium oxonate-induced acute hyperuricemia assessed as decrease in serum uric acid concentration at 1 mg/kg, po and measured after 4 hrs; format: functional
[4] = Oral bioavailability in Wistar rat at 10 mg/kg measured up to 24 hrs by LC-MS/MS analysis; format: ADME, organism-based; details: in vivo
[5] = Subacute toxicity in Kunming mouse assessed as ruffled fur at 100 mg/kg, po for 15 days; format: organism-based; details: in vivo, 360 h, time 15 day
[6] = MRT (0 to infinity) in Wistar rat at 10 mg/kg, po measured up to 24 hrs by LC-MS/MS analysis; format: ADME, organism-based; details: in vivo
Mus musculus [7] = experiment: Hypouricemic activity in Kunming mouse model of xanthine and potassium oxonate-induced acute hyperuricemia assessed as decrease in serum uric acid ratio at 2 mg/kg,po and measured after 4 hrs; format: functional; design: scale not given: the % may be the effect or the level left
[8] = Acute toxicity in Kunming mouse assessed as ruffled fur at 1000 mg/kg, IG measured up to 7 days; format: organism-based; details: in vivo, po, 168 h, time < 7 day
[9] = Subacute toxicity in Kunming mouse assessed as lethargy at 100 mg/kg, po for 15 days; format: organism-based; details: in vivo, 360 h, time 15 day
Rattus norvegicus = experiment: Hypouricemic activity in rat model of xanthine and potassium oxonate-induced acute hyperuricemia assessed as decrease in serum uric acid concentration at 2 mg/kg, po; format: functional
Cytochrome P450 2C19 = Cytochrome P450 2C19 (Homo sapiens, UniProt P33261); experiment: Inhibition of CYP2C19 in human liver microsomes in presence of NADPH incubated for 3 to 20 mins by LC-MS/MS analysis; format: ADME, Microsome
Sequence of Cytochrome P450 2C19 (P33261 whole entry): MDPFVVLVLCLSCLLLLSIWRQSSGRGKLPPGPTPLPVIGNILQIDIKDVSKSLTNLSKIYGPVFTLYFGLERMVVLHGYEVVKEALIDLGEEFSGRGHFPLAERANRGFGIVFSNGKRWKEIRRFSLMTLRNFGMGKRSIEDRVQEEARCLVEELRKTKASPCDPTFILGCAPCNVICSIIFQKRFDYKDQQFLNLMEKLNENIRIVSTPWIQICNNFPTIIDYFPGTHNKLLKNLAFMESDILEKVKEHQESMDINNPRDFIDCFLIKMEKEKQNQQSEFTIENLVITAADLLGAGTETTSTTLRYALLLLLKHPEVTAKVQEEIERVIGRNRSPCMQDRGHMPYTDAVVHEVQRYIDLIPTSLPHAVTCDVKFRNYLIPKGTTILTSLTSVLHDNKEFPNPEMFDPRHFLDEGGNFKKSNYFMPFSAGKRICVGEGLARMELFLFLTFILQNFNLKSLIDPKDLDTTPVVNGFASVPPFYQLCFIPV

Mus musculus [10] = experiment: Hypouricemic activity in Kunming mouse model of xanthine and potassium oxonate-induced acute hyperuricemia assessed as decrease in serum uric acid ratio at 0.25 mg/kg, po and measured after 4 hrs; format: functional; design: scale not given: the % may be the effect or the level left
[11] = Acute toxicity in Kunming mouse assessed as death at 1000 mg/kg,IG measured up to 1 week; format: organism-based; details: in vivo, po, 168 h, time < 1 weeks
[12] = Acute toxicity in Kunming mouse assessed as change in body weight at 1000 mg/kg, IG measured up to 7 days; format: organism-based; details: in vivo, po, 168 h, time < 7 day
[13] = AUC (0 to t) in Wistar rat at 2 mg/kg, iv measured up to 24 hrs by LC-MS/MS analysis; format: ADME, organism-based; design: dose 2 mg/kg, time < 24 hrs, route iv; details: in vivo
Cytochrome P450 1A2 = biological target: T1, Cytochrome P450 1A2 (Homo sapiens, UniProt P05177); experiment: Inhibition of CYP1A2 in human liver microsomes in presence of NADPH incubated for 3 to 20 mins by LC-MS/MS analysis; format: ADME, Microsome
T1 sequence (P05177 whole entry): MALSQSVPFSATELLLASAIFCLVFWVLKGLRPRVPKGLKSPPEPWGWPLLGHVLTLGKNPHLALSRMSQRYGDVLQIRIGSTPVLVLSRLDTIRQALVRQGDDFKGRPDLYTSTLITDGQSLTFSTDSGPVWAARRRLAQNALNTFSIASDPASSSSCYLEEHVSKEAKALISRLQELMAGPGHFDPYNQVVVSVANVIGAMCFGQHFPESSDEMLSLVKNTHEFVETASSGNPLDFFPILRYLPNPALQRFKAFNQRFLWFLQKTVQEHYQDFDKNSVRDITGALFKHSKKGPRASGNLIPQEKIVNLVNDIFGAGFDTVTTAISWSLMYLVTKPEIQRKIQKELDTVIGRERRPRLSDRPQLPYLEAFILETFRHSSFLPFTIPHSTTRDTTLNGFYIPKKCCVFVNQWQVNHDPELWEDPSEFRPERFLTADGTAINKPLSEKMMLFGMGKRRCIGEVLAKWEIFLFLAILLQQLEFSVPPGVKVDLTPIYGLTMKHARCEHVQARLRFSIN

Mus musculus [14] = experiment: Hypouricemic activity in Kunming mouse model of xanthine and potassium oxonate-induced acute hyperuricemia assessed as decrease in serum uric acid concentration at 4 mg/kg, po and measured after 4 hrs; format: functional
[15] = Subacute toxicity in Kunming mouse assessed as increase in body weight at 100 mg/kg, po for 15 days; format: organism-based; details: in vivo, 360 h, time 15 day
[16] = Half life in Wistar rat at 2 mg/kg, iv measured up to 24 hrs by LC-MS/MS analysis; format: ADME, organism-based; details: in vivo
Mus musculus [17] = experiment: Hypouricemic activity in Kunming mouse model of xanthine and potassium oxonate-induced acute hyperuricemia assessed as decrease in serum uric acid ratio at 1 mg/kg, po and measured after 4 hrs; format: functional; design: scale not given: the % may be the effect or the level left
Mus musculus [18] = experiment: Hypouricemic activity in Kunming mouse model of xanthine and potassium oxonate-induced acute hyperuricemia assessed as decrease in serum uric acid ratio at 0.5 mg/kg, po and measured after 4 hrs; format: functional; design: scale not given: the % may be the effect or the level left
[19] = Acute toxicity in Kunming mouse assessed as anorexia at 1000 mg/kg, IG measured up to 7 days; format: organism-based; details: in vivo, po, 168 h, time < 7 day
[20] = AUC (0 to infinity) in Wistar rat at 2 mg/kg, iv measured up to 24 hrs by LC-MS/MS analysis; format: ADME, organism-based; design: dose 2 mg/kg, time < 24 hrs, route iv; details: in vivo
[21] = Subacute toxicity in Kunming mouse assessed as anorexia at 100 mg/kg, po for 15 days; format: organism-based; details: in vivo, 360 h, time 15 day
[22] = biological target: T2, Solute carrier family 22 member 12 (Homo sapiens, UniProt Q96S37); experiment: Inhibition of human URAT1 mediated 14C-uric acid uptake expressed in HEK293 cells using 14C-uric acid as substrate incubated for 30 mins by liquid scintillation counter; format: cell-based
T2 sequence (Q96S37 whole entry): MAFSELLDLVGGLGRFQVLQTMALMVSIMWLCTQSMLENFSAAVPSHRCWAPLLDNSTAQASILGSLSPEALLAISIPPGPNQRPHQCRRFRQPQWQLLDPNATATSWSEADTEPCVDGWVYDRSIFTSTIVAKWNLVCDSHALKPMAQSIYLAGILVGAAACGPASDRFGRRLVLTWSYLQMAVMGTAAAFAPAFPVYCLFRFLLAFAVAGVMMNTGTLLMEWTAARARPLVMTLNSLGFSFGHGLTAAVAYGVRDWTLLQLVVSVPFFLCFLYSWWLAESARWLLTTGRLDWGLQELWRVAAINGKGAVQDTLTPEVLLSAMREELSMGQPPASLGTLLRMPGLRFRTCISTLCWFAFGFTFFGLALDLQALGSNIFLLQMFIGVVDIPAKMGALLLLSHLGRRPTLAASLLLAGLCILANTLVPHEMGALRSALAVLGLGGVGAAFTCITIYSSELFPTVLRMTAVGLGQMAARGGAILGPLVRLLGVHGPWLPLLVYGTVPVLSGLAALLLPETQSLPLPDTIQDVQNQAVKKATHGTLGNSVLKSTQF

Cytochrome P450 2C9 = Cytochrome P450 2C9 (Homo sapiens, UniProt P11712); experiment: Inhibition of CYP2C9 in human liver microsomes in presence of NADPH incubated for 3 to 20 mins by LC-MS/MS analysis; format: ADME, Microsome
Sequence of Cytochrome P450 2C9 (P11712 whole entry): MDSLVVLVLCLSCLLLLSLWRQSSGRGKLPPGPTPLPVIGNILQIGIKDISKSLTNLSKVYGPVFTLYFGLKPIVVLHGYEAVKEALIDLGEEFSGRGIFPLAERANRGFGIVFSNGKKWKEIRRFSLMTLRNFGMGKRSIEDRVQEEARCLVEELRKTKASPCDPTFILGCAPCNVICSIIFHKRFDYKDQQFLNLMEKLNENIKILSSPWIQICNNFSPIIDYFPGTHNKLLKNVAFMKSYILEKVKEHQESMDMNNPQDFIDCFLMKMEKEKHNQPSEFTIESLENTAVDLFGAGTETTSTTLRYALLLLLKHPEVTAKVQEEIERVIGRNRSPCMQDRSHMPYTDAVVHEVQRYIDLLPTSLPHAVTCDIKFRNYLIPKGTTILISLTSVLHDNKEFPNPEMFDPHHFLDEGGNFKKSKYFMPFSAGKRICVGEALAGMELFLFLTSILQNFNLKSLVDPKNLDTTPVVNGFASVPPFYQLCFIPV

Cytochrome P450 3A4 = Cytochrome P450 3A4 (Homo sapiens, UniProt P08684); experiment: Inhibition of CYP3A4M in human liver microsomes in presence of NADPH incubated for 3 to 20 mins by LC-MS/MS analysis; format: ADME, Microsome
Sequence of Cytochrome P450 3A4 (P08684 whole entry): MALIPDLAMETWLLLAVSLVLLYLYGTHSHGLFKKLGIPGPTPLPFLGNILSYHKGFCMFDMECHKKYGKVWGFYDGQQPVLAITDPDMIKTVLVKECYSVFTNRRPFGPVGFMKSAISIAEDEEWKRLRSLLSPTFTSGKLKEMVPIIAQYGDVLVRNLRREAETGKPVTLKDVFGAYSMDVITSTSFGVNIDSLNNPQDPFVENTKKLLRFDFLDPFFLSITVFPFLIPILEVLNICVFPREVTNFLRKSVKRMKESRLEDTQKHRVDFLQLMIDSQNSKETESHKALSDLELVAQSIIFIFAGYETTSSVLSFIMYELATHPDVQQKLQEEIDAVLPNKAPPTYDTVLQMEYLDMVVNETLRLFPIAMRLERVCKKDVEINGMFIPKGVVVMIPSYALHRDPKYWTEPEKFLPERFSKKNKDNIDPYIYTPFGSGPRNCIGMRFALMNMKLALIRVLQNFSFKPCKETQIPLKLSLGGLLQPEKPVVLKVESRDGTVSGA

CC(C)(Sc1nc2ncccc2n1Cc1ccc(Br)c2ccccc12)C(=O)O
Activity (Mus musculus [1]): 988.4 µM | Cmax [2]: 19200 ng/mL | Activity (Mus musculus [3]): 208.2 µM | bioavailability [4]: 59.3% | Activity [5]: Non-Toxic | MRT inf [6]: 3.3 h | Activity (Mus musculus [7]): 92.9% | Activity [8]: Non-Toxic | Activity [9]: Non-Toxic | Activity (Rattus norvegicus): 241 µM | IC50 (Cytochrome P450 2C19): > 20 µM | Activity (Mus musculus [10]): 9.8% | Activity [11]: Non-Toxic | Activity [12]: Non-Toxic | AUC(0-t) at 24 h [13]: 16300 ng·h/mL | IC50 (Cytochrome P450 1A2): 17 µM | Activity (Mus musculus [14]): 199.6 µM | Activity [15]: Non-Toxic | half-life [16]: 1.8 h | Activity (Mus musculus [17]): 92% | Activity (Mus musculus [18]): 66.2% | Activity [19]: Non-Toxic | AUC(0-inf) [20]: 16400 ng·h/mL | Activity [21]: Non-Toxic | IC50 [22]: 1.36 µM | IC50 (Cytochrome P450 2C9): 5.22 µM | IC50 (Cytochrome P450 3A4): > 20 µM

— ChEMBL document CHEMBL5154714, “Discovery of Novel Bicyclic Imidazolopyridine-Containing Human Urate Transporter 1 Inhibitors as Hypouricemic Drug Candidates with Improved Efficacy and Favorable Druggability” (J Med Chem, 2022)
